From US11377441B2, “Covalent inhibitors of KRAS” (Araxes Pharma LLC, priority 2017, dated 2022)

molecular target: T1, KRAS G12C 1-169, his-tagged protein, GDP-loaded (Homo sapiens, UniProt P01116, G12C); experiment: Biochemical assay: covalent modification of KRAS G12C measured by mass spectrometry (RapidFire/TOF or Q-Exactive); format: binding; conditions: Example 14 comparative biochemical data; tested according to the above procedures (Example 1)
T1 construct: KRAS G12C 1-169, his-tagged protein, GDP-loaded
Procedure, shortened: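 Intact-mass readout (TOF or Q-Exactive, charge-envelope deconvolution) gives percent covalent adduct from modified and unmodified species. Compound at 10, 30 or 100 μM was incubated at room temperature for 10 min to 24 h with 2 μM or 0.5 μM GDP-bound KRAS G12C 1-169 in Hepes/NaCl/MgCl2 buffer, then acid-quenched.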

binding activity | Structure (SMILES)
71% | C=CC(=O)N1C[C@H](C)N(c2nc(N3CC(N(C)C)C3)nc3c(F)c(-c4c(C)ccc5[nH]ncc45)c(Cl)cc23)C[C@H]1C (atropisomer, axis not shown) [reference compound]

same assay, conditions: covalent binding to (modification of) KRAS G12C after a ten minute incubation period

Structure (SMILES) | Binding %
C=CC(=O)N1C[C@H](C)N(c2nc(N3CC(N(C)C)C3)nc3c(F)c(-c4cccc5[nH]ncc45)c(Cl)cc23)C[C@H]1C [Compound 1, 1-((2R,5S)-4-(6-chloro-2-(3-(dimethylamino)azetidin-1-yl)-8-fluoro-7-(1H-indazol-4-yl)quinazolin-4-yl)-2,5-dimethylpiperazin-1-yl)prop-2-en-1-one] | ++ (++ indicates binding activity from 50 to 80%)
C=CC(=O)N1C[C@H](C)N(c2nc(N3CC(N(C)C)C3)nc3c(F)c(-c4cccc5[nH]nc(N)c45)c(Cl)cc23)C[C@H]1C [Compound 2, 1-((2R,5S)-4-(7-(3-amino-1H-indazol-4-yl)-6-chloro-2-(3-(dimethylamino)azetidin-1-yl)-8-fluoroquinazolin-4-yl)-2,5-dimethylpiperazin-1-yl)prop-2-en-1-one] | ++ (++ indicates binding activity from 50 to 80%)
C=CC(=O)N1C[C@H](C)N(c2nc(N3CC(N(C)C)C3)nc3c(F)c(-c4c(C)ccc5[nH]nc(N)c45)c(Cl)cc23)C[C@H]1C [Compound 3, 1-((2R,5S)-4-(7-(3-amino-5-methyl-1H-indazol-4-yl)-6-chloro-2-(3-(dimethylamino)azetidin-1-yl)-8-fluoroquinazolin-4-yl)-2,5-dimethylpiperazin-1-yl)prop-2-en-1-one] | +++ (+++ indicates binding activity greater than 80%)
C=CC(=O)N1C[C@H](C)N(c2nc(N3CC(N(C)C)C3)nc3c(F)c(-c4c(C)ccc5[nH]nc(NC)c45)c(Cl)cc23)C[C@H]1C [Compound 13, 1-((2R,5S)-4-(6-chloro-2-(3-(dimethylamino)azetidin-1-yl)-8-fluoro-7-(5-methyl-3-(methylamino)-1H-indazol-4-yl)quinazolin-4-yl)-2,5-dimethylpiperazin-1-yl)prop-2-en-1-one] | ++ (++ indicates binding activity from 50 to 80%)
C=CC(=O)N1C[C@H](C)N(c2nc(N3CC(N(C)C)C3)nc3c(F)c(-c4c(C)ccc5c(N)n[nH]c45)c(Cl)cc23)C[C@H]1C [Compound 22, 1-((2R,5S)-4-(7-(3-amino-6-methyl-1H-indazol-7-yl)-6-chloro-2-(3-(dimethylamino)azetidin-1-yl)-8-fluoroquinazolin-4-yl)-2,5-dimethylpiperazin-1-yl)prop-2-en-1-one] | + (+ indicates binding activity greater than 0% and up to 50%)
C=CC(=O)N1C[C@H](C)N(c2nc(N3CC(N(C)C)C3)nc3c(F)c(-c4c(C)ccc5[nH]nc(Cl)c45)c(Cl)cc23)C[C@H]1C [Compound 23, 1-((2R,5S)-4-(6-chloro-7-(3-chloro-5-methyl-1H-indazol-4-yl)-2-(3-(dimethylamino)azetidin-1-yl)-8-fluoroquinazolin-4-yl)-2,5-dimethylpiperazin-1-yl)prop-2-en-1-one] | +++ (+++ indicates binding activity greater than 80%)
C=CC(=O)N1C[C@H](C)N(c2nc(N3CC(N(C)C)C3)nc3c(F)c(-c4ccc(F)c5[nH]ncc45)c(Cl)cc23)C[C@H]1C [Compound 29, 1-((2R,5S)-4-(6-chloro-2-(3-(dimethylamino)azetidin-1-yl)-8-fluoro-7-(7-fluoro-1H-indazol-4-yl)quinazolin-4-yl)-2,5-dimethylpiperazin-1-yl)prop-2-en-1-one] | + (+ indicates binding activity greater than 0% and up to 50%)
C=CC(=O)N1C[C@H](C)N(c2nc(N3CC(N(C)C)C3)nc3c(F)c(-c4ccc(Cl)c5[nH]ncc45)c(Cl)cc23)C[C@H]1C [Compound 30, 1-((2R,5S)-4-(6-chloro-7-(7-chloro-1H-indazol-4-yl)-2-(3-(dimethylamino)azetidin-1-yl)-8-fluoroquinazolin-4-yl)-2,5-dimethylpiperazin-1-yl)prop-2-en-1-one] | + (+ indicates binding activity greater than 0% and up to 50%)
C=CC(=O)N1C[C@H](C)N(c2nc(N3CC(N(C)C)C3)nc3c(F)c(-c4c(C)ccc5[nH]nc(NC6CCC6)c45)c(Cl)cc23)C[C@H]1C [Compound 36, 1-((2R,5S)-4-(6-chloro-7-(3-(cyclobutylamino)-5-methyl-1H-indazol-4-yl)-2-(3-(dimethylamino)azetidin-1-yl)-8-fluoroquinazolin-4-yl)-2,5-dimethylpiperazin-1-yl)prop-2-en-1-one] | + (+ indicates binding activity greater than 0% and up to 50%)
C=CC(=O)N1C[C@H](C)N(c2nc(N3CC(N(C)C)C3)nc3c(F)c(-c4c(C)ccc5[nH]nc(NC(C)C)c45)c(Cl)cc23)C[C@H]1C [Compound 39, 1-((2R,5S)-4-(6-chloro-2-(3-(dimethylamino)azetidin-1-yl)-8-fluoro-7-(3-(isopropylamino)-5-methyl-1H-indazol-4-yl)quinazolin-4-yl)-2,5-dimethylpiperazin-1-yl)prop-2-en-1-one] | + (+ indicates binding activity greater than 0% and up to 50%)
C=CC(=O)N1C[C@H](C)N(c2nc(N3CC(N(C)C)C3)nc3c(F)c(-c4c(C)ccc5[nH]nc(Br)c45)c(Cl)cc23)C[C@H]1C [Compound 40, 1-((2R,5S)-4-(7-(3-bromo-5-methyl-1H-indazol-4-yl)-6-chloro-2-(3-(dimethylamino)azetidin-1-yl)-8-fluoroquinazolin-4-yl)-2,5-dimethylpiperazin-1-yl)prop-2-en-1-one] | +++ (+++ indicates binding activity greater than 80%)
C=CC(=O)N1[C@H](C)CN(c2nc(N3CC(N(C)C)C3)nc3c(F)c(-c4c(C)ccc5[nH]nc(N)c45)c(Cl)cc23)C[C@@H]1C [Compound 41, 1-((2S,6R)-4-(7-(3-amino-5-methyl-1H-indazol-4-yl)-6-chloro-2-(3-(dimethylamino)azetidin-1-yl)-8-fluoroquinazolin-4-yl)-2,6-dimethylpiperazin-1-yl)prop-2-en-1-one] | +++ (+++ indicates binding activity greater than 80%)
C=CC(=O)N1C[C@H](C)N(c2nc(N3CC(N(C)C)C3)nc3c(F)c(-c4c(C)ccc5[nH]nc(N(C)C)c45)c(Cl)cc23)C[C@H]1C [Compound 42, 1-((2R,5S)-4-(6-chloro-7-(3-(dimethylamino)-5-methyl-1H-indazol-4-yl)-2-(3-(dimethylamino)azetidin-1-yl)-8-fluoroquinazolin-4-yl)-2,5-dimethylpiperazin-1-yl)prop-2-en-1-one] | + (+ indicates binding activity greater than 0% and up to 50%)
C=CC(=O)N1CC2CCC(C1)N2c1nc(N2CC(N(C)C)C2)nc2c(F)c(-c3c(C)ccc4[nH]nc(N)c34)c(Cl)cc12 [Compound 43, 1-((1R,5S)-8-(7-(3-amino-5-methyl-1H-indazol-4-yl)-6-chloro-2-(3-(dimethylamino)azetidin-1-yl)-8-fluoroquinazolin-4-yl)-3,8-diazabicyclo[3.2.1]oc-tan-3-yl)prop-2-en-1-one] | + (+ indicates binding activity greater than 0% and up to 50%)
C=CC(=O)N1C[C@H](C)N(c2nc(N3CC(N(C)C)C3)nc3c(F)c(-c4cccc5ncccc45)c(Cl)cc23)C[C@H]1C [Compound 44, 1-((2R,5S)-4-(6-chloro-2-(3-(dimethylamino)azetidin-1-yl)-8-fluoro-7-(quinolin-5-yl)quinazolin-4-yl)-2,5-dimethylpiperazin-1-yl)prop-2-en-1-one] | ++ (++ indicates binding activity from 50 to 80%)
C=CC(=O)N1C[C@@H](C)N(c2nc(N3CC(N(C)C)C3)nc3c(F)c(-c4c(C)ccc5[nH]nc(N)c45)c(Cl)cc23)[C@@H](C)C1 [Compound 45, 1-((3R,5S)-4-(7-(3-amino-5-methyl-1H-indazol-4-yl)-6-chloro-2-(3-(dimethylamino)azetidin-1-yl)-8-fluoroquinazolin-4-yl)-3,5-dimethylpiperazin-1-yl)prop-2-en-1-one] | +++ (+++ indicates binding activity greater than 80%)
C=CC(=O)N1C[C@H](C)N(c2nc(N3CC(N(C)C)C3)nc3c(F)c(-c4c(C)ccc5[nH]nc(NCC)c45)c(Cl)cc23)C[C@H]1C [Compound 46, 1-((2R,5S)-4-(6-chloro-2-(3-(dimethylamino)azetidin-1-yl)-7-(3-(ethylamino)-5-methyl-1H-indazol-4-yl)-8-fluoroquinazolin-4-yl)-2,5-dimethylpiperazin-1-yl)prop-2-en-1-one] | ++ (++ indicates binding activity from 50 to 80%)
C=CC(=O)N1C2CCC1CN(c1nc(N3CC(N(C)C)C3)nc3c(F)c(-c4c(C)ccc5[nH]nc(N)c45)c(Cl)cc13)C2 [Compound 47, 1-((1R,5S)-3-(7-(3-amino-5-methyl-1H-indazol-4-yl)-6-chloro-2-(3-(dimethylamino)azetidin-1-yl)-8-fluoroquinazolin-4-yl)-3,8-diazabicyclo[3.2.1]oc-tan-8-yl)prop-2-en-1-one] | ++ (++ indicates binding activity from 50 to 80%)
C=CC(=O)N1CCN(c2nc(N3CC(N(C)C)C3)nc3c(F)c(-c4c(C)ccc5[nH]nc(N)c45)c(Cl)cc23)[C@@H](C)C1 [Compound 48, 1-((3S)-4-(7-(3-amino-5-methyl-1H-indazol-4-yl)-6-chloro-2-(3-(dimethylamino)azetidin-1-yl)-8-fluoroquinazolin-4-yl)-3-methylpiperazin-1-yl)prop-2-en-1-one] | +++ (+++ indicates binding activity greater than 80%)
C=CC(=O)N1C[C@H](C)N(c2nc(OCCN3CCCC3)nc3c(F)c(-c4c(C)ccc5[nH]nc(N)c45)c(Cl)cc23)C[C@H]1C [Compound 49, 1-((2R,5S)-4-(7-(3-amino-5-methyl-1H-indazol-4-yl)-6-chloro-8-fluoro-2-(2-(pyrrolidin-1-yl)ethoxy)quinazolin-4-yl)-2,5-dimethylpiperazin-1-yl)prop-2-en-1-one] | +++ (+++ indicates binding activity greater than 80%)
